Data taken from patent US20170137753A1, “DELIVERY SYSTEMS COMPRISING MALODOR REDUCTION COMPOSITIONS” (The Procter & Gamble Company, priority 2014, published 2017).

Assay: Blocker Index (BI), expert graders, malodorous fabric swatch treated with test material
From the text: Blocker materials suitable for use in consumer products of the present invention are chosen for their ability to decrease malodor, while not interfering with perception of a fragrance. Material selection is done by assigning two indices to a test sample material from two reference scales in order to rank odor strengths. The two reference scales are the Fragrance Fidelity Index (FFI) scale and the Blocker Index (BI) scale. The FFI ranks the ability of the test sample material to impart a perceivable odor which could cause interference when combined with another fragrance and the BI ranks the ability of the test sample material to reduce malodor perception. The two methods for assigning the indices to a test sample on the FFI and the BI reference scales are given below.
The first step in the method for assigning a BI to a test sample material on the BI reference scale is to create the BI reference swatches. […] Fabric swatches for this test are white knit polycotton (4 inch×4 inch) swatches from EMC ordered as PC 50/50. The supplier is instructed to strip the swatches first, stripping involves washing twice with a fragrance-free detergent and rinsing three times.
The BI scale contains one clean swatch with no malodor applied. […] These solutions are pipetted to the middle of the swatches. […] After drying for 30 minutes in a vented hood, the swatches are wrapped in aluminum foil to prevent odor contamination to the treated swatch. A clean untreated swatch is also included as the lowest anchor point of reference for malodor strength on the BI scale. The BI reference scale swatches should be used within 0.5 to 12 hours and discarded after 12 hours. The swatches are used as scale anchor points when graders evaluate a test sample(s) and are assigned a Blocker Index (BI) as show in Table 12.
The perfumer/expert grader is asked to rank order swatches according to a scale between 0 and 3.
The reference swatches represent the 0, 1, 2, and 3 BIs on the BI reference scale, Table 12. The expert grader should familiarizes him/herself with the strength of the odor on the BI reference swatches by sniffing each one starting at 0 (the lowest odor strength) and ending at 3 (the highest odor strength). This should be done prior to evaluating the swatch treated with the test material.
To evaluate the BI, the test material is applied to a malodorous swatch to determine how well the test material blocks the malodor. […] After drying the malodorous swatch a known concentration of test material solution, between 1 ppm and 100 ppm is pipetted onto the malodorous swatch. […] It is sometimes necessary to evaluate several levels of the test material between about 1 and about 100 ppm to determine the BI.
At least two perfumers/expert graders are used to assign the BI to the test sample. […] The test sample swatch is assigned a BI at or between numbers on the BI in table.

[1] = Conc 10 ppm test material on isovaleric acid swatch
[2] = Conc 50 ppm test material on isovaleric acid swatch

Row | Compound | BI [1] | BI [2] | BI (Conc 10 ppm test material on isovaleric acid swatch, listed as 1H-Indene-5-propanal, 2,3-dihydro-3 ,3-dimethyl-) | BI (Conc 50 ppm test material on isovaleric acid swatch, listed as 1H-Indene-5-propanal, 2,3-dihydro-3 ,3-dimethyl-)
1 | CC1CCC2(C(C)C)CC(C)OC2C1 (stereo not drawn) [4,8-dimethyl-1-(methylethyl)-7-oxybiciclo[4.3.0]nonane] | 2.0 | 2.2 | – | –
2 | CCC(=O)OC1CC2C3C=CCC3C1C2(C)C (stereo not drawn) [8,8-dimethyl-3a,4,5,6,7,7a-hexahydro-1H-4,7-methanoinden-6-yl propionate] | 1.5 | 2.2 | – | –
3 | CC1(C)CCc2ccc(CCC=O)cc21 [Material 261, 3-(3,3-dimethyl-2,3-dihydro-1H-inden-5-yl)propanal] | – | – | 1.5 | 2.7
